{"source": "patent US10363239B2", "about": "“Method for inhibiting growth of cancer cells” (Pain Therapeutics, Inc., priority 2013, dated 2019)", "molecular_target": "biotinylated pentapeptide (Bn-VAKGL) of SEQ ID NO: 1 (Homo sapiens, UniProt P21333)", "assay": "Inhibition of [3H]NLX binding to biotinylated pentapeptide (Bn-VAKGL)", "details": "read-out: IC50, inhibition of [3H]NLX binding to Bn-VAKGL; single affinity state", "source_text": "Data are derived from 6 studies, each using a different set of A7 cells."}
{"smiles": "O=C1CC[C@@]2(O)[C@H]3Cc4ccc(O)c5c4[C@@]2(CCN3CC2CC2)[C@H]1O5", "note": "[Naltrexone]", "values": [{"measurement": "IC50", "result": 0.043, "unit": "nM"}]}
